From article PMC12040169 (PLOS Biology, 2025) come the findings set out here.

The nature of this data set: in vitro. To be noted: human, hela cells.
The mark [1] stands for this setting: % viability, bulk resorufin, single well.

Take `Clc1ccc(-c2cn(-c3cnc4ccccc4c3)nn2)cc1` [CBK113044]: the viability at 28.5 h, 10 µM (% viability) was 94.8%. The same measure, in the same setting: then `Cc1nn(C)c(C)c1NC(=O)COc1ccc(C#N)cc1` [CBK306011], with 87.5%; and `N#Cc1ccccc1N1C(=O)c2cccc([N+](=O)[O-])c2C1=O` [CBK115322], with 94.1%; and `COc1ccc(/C=C/C2=CCN(C)CC2)cc1Cn1cccn1` [CBK283859], with 90.8%. The same measure, in the same setting: then `Cc1ccc2oc([C@H]3CN(C(=O)C4CCN(C(=O)OC(C)(C)C)CC4)C[C@@H]3C(=O)O)cc2c1` [CBK001601], with 90.7%. As for `Cc1cccc(OCC(=O)Nc2ccc(S(=O)(=O)N3CCOCC3)cc2)c1` [CBK264110], the viability at 28.5 h, 10 µM (% viability) stood at 94.6%. For `O=C(/C=C/c1ccc(N2N=N2)cc1)/C=C/c1ccc(N2N=N2)cc1` [CBK261638], the viability at 28.5 h, 10 µM came out at 105%. For the compound `COc1ccc(-c2nccnc2N[C@@H](CO)C(C)C)cc1` [CBK089040], where the note is “% viability”, the viability at 28.5 h, 10 µM was 98.5%. Still for that read-out and setting: then `CCN(CC)C(=O)CN1C(=O)C2(Nc3ccccc3C(=O)N2c2ccc(C)cc2)c2ccccc21` (stereo not drawn) [CBK093478], with 86%. Still for that read-out and setting: with `O=C1NC2(CCCN(C(=O)c3ccco3)C2)Nc2ccccc21` (stereo not drawn) [CBK284803] the figure was 104%; with `O=C(c1cccs1)N1CCC2(CC1)Nc1ccccc1-n1cccc12` [CBK283489], 99.3%; with `CC(CN(C)C(=O)CC1CCN(C(=O)CC2CCCCC2)CC1)c1ccccc1` (stereo not drawn) [CBK286268], 97.9%. Same read-out and setting: then `Cc1cc(C)n(C(C)CC(=O)Nc2cccc(OC(C)C)c2)n1` (stereo not drawn) [CBK281538], with 96.5%. Take `O=C(Nc1ccc(C(F)(F)F)cc1)c1cc(Br)cnc1NCc1cccnc1` [CBK076419]: the viability at 28.5 h, 10 µM (% viability) stood at 111%.

Consider `CC(=O)c1ccc2c(c1)[C@@H]1C=CC[C@@H]1[C@H](C(=O)O)N2` [CBK287093], for which, where the note is “% viability”, the viability at 28.5 h, 10 µM amounted to 91.6%.

In the case of `O=C(c1ccc(-c2nccnc2NCCc2c[nH]c3ccccc23)cc1)N1CCOCC1` [CBK036891], the viability at 28.5 h, 10 µM (% viability) stood at 95.6%. `Cc1ccccc1-n1nnnc1C(c1ccccc1)N(C)Cc1cccc([N+](=O)[O-])c1` (stereo not drawn) [CBK262878]: under “% viability”, the viability at 28.5 h, 10 µM was determined as 91%. The same measure, in the same setting: with `CCNC(=O)c1c(O)nc2ccccc2c1O` [CBK262450] the figure was 103%.

Take `Cc1csc2nc(-c3ccccc3)cn12` [CBK098072]: for the setting “% viability”, the viability at 28.5 h, 10 µM is 108%.

Regarding `CCCCSc1nc(N)cc(N2CCCC(C(=O)N3CCOCC3)C2)n1` (stereo not drawn) [CBK307210], the viability at 28.5 h, 10 µM (% viability) came to 75.2%. On the same count and under the same terms, with `Cc1cc(COC(=O)Nc2ccc3nc(C)ccc3c2)cc(C)n1` [CBK200127] the figure was 90.5%; with `COC(=O)[C@H]1CN(C(=O)c2cn(C)nc2C)C[C@@H]1c1ccccc1F` [CBK283511], 88.2%. On to `COCCn1cc(C(=O)N2CCCC2c2ccncc2)c2ccccc21` (stereo not drawn) [CBK305286], for which the viability at 28.5 h, 10 µM (% viability) was determined as 91.8%.

Take `O=C(O)CCC(=O)Nc1ccc(-c2ccc([N+](=O)[O-])cc2)cc1` [CBK261637]: under “% viability”, the viability at 28.5 h, 10 µM came to 105%. The same measure, in the same setting: with `N#Cc1cccc(OCC(=O)NCC2(N3CCOCC3)CCSC2)c1` (stereo not drawn) [CBK305685] the figure was 86.3%; with `COc1ccc([C@@]23CC[C@@H](NC(=O)Nc4ccc(Cl)cc4Cl)C[C@@H]2CN(C)C3)cc1OC` [CBK085798T], 88.5%; with `Cc1nc(C)n(C2CN(S(=O)(=O)c3ccc4scnc4c3)C2)n1` [CBK305889], 95.6%. With `S=c1[nH]nc(-c2ccc(Cl)cc2)n1-c1cccnc1` [CBK086427], under “% viability”, the viability at 28.5 h, 10 µM worked out at 83.6%. Consider `CC(=O)N1CCC2(CC1)OCc1cc(-c3ccccc3C(=O)O)ccc1O2` [CBK060975], for which the viability at 28.5 h, 10 µM under setting [1] was 92.1%. Take `Cc1ccc(N2C(=O)N[C@@H]3CCN(C(=O)c4ccc(C(C)(C)C)cc4)[C@@H]3C2=O)cc1` [CBK289284]: the viability at 28.5 h, 10 µM (% viability) worked out at 98.8%. Same read-out and setting: with `COc1ccc(CN2CCC(O)CC2)c(OC)c1` [CBK261522] the figure was 95.9%; with `CCOC(=O)c1cc(S(=O)(=O)NC2CCN(C(=O)OCC)CC2)cn1C` [CBK304665], 90.1%; with `Cc1ccc(-c2nnc(C3CCCN(C(=O)C(C)C)C3)o2)s1` (stereo not drawn) [CBK283058], 96.9%. Still for that read-out and setting: then `Cc1cc(Br)ccc1C(=O)NCCc1c[nH]c2ccc(Cl)cc12` [CBK159771], with 91%; and `O=C(NCCOc1ccccc1)N1CCCC(CO)C1` (stereo not drawn) [CBK156058], with 99.6%; and `CCCC(=O)Nc1ccc(OCc2cnccn2)c(C(C)=O)c1` [CBK304766], with 102%.

`Cc1ccc(C(O)CN2CCC(O)(c3ccc(F)cc3)CC2)cc1` (stereo not drawn) [CBK283309]: the viability at 28.5 h, 10 µM (% viability) is 94.5%. Consider `COc1ccc(C2N(Cc3ccccc3)CCN2Cc2ccccc2)c(OC)c1OC` [CBK265220], for which, for the setting “% viability”, the viability at 28.5 h, 10 µM was determined as 104%.

On to `O=C(CN1C(=O)c2ccccc2C1=O)Nc1cccc(-c2cnc3ccccc3n2)c1` [CBK268614], for which the viability at 28.5 h, 10 µM (% viability) turned out to be 115%. Take `COc1cc(CNc2ccccc2Cl)ccc1OCC(=O)O` [CBK287045]: the viability at 28.5 h, 10 µM (% viability) was found to be 89.7%.

As to `c1ccc(CCNc2nc(-c3ccc(N4CCOCC4)cc3)cn3ccnc23)nc1` [CBK037271], for the setting “% viability”, the viability at 28.5 h, 10 µM was found to be 96.4%. As to `CCOc1ccc(NC(=O)c2c(O)c3ccccc3n(CC)c2=O)cc1` [CBK287771], under “% viability”, the viability at 28.5 h, 10 µM worked out at 107%.

As to `OCCNc1nc(Nc2ccc(Cl)cc2)nc(N2CCCCC2)n1` [CBK266638], the viability at 28.5 h, 10 µM (% viability) turned out to be 97.3%. For `c1ccc(CCN2CCC(Cc3ccccc3)CC2)cc1` [CBK126434], the viability at 28.5 h, 10 µM (% viability) was found to be 96.3%.

Regarding `CO/N=C\c1c(CO)cnc(C)c1O` [CBK022776], the viability at 28.5 h, 10 µM (% viability) was 98.4%.

For the compound `c1ccc(COc2ccccc2CNCCN2CCOCC2)cc1` [CBK278212C], the viability at 28.5 h, 10 µM (% viability) worked out at 90.7%. As to `CCN(CC)CCN1CCN(c2cc(-c3cccc4ccccc34)ncn2)CC1` [CBK091196], the viability at 28.5 h, 10 µM (% viability) is 99.9%.

Regarding `CN(C)CCN1CCN(c2nccnc2-c2cccc(CO)c2)CC1` [CBK037047], the viability at 28.5 h, 10 µM (% viability) was found to be 94.7%.

On to `CCC1CCCCN1C(=O)c1ccc(-c2ccccc2)s1` (stereo not drawn) [CBK074215], for which the viability at 28.5 h, 10 µM (% viability) was found to be 96.5%. On the same count and under the same terms, then `CCc1onc(C)c1C(=O)NC(Cc1ccsc1)c1nccs1` (stereo not drawn) [CBK285142], with 94%. With `O=C1NC(=O)C(=Cc2ccccc2OS(=O)(=O)c2ccc3ccccc3c2)C(=O)N1` [CBK263599], the viability at 28.5 h, 10 µM under setting [1] was 64%. Consider `COc1cc(F)ccc1S(=O)(=O)NC1CC(C)(C)NC(C)(C)C1` [CBK266428], for which the viability at 28.5 h, 10 µM (% viability) was 112%. The same measure, in the same setting: then `OCCCNc1nccnc1-c1ccc(F)cc1` [CBK037348], with 109%; and `O=S(=O)(c1ccccc1)c1ccccc1C(F)(F)F` [CBK085887], with 104%. With `COc1cc(C=C2C(=O)NC(=S)NC2=O)ccc1OCc1c(C)no[n+]1[O-]` [CBK263467], the viability at 28.5 h, 10 µM under setting [1] is 95.8%. Regarding `COC(=O)c1cn([C@H]2CO[C@H]3[C@@H]2OC[C@H]3O)nn1` [CBK289491], the viability at 28.5 h, 10 µM (% viability) was 87.5%. As to `NC(=O)c1cc(-c2ccccc2)sc1NC(=O)C(Cc1ccccc1)N1C(=O)c2ccccc2C1=O` (stereo not drawn) [CBK265843], under “% viability”, the viability at 28.5 h, 10 µM is 104%.

The term viability denotes a read-out of living cells in per cent, often relative to untreated cells.
